Measured values taken from PMC7056649 (Heliyon, 2020).

Assays:
Caco-2 cells = conditions: ref Ahn et al., 2017, Mei et al., 2012; cited from earlier work
[1] = system: membrane-bound α-glucosidases on differentiated Caco-2 cells; test: Membrane bound α-glucosidase inhibitory activity in differentiated Caco-2 cells; assay type: cell-based, human; conditions: 25 mM maltose, 0.1-100 μg/ml, 4 h; comparison in words
[2] = biological target: T1, porcine pancreatic α-amylase (Sus scrofa, UniProt P00690); test: α-Amylase inhibitory activity; assay type: biochemical; conditions: up to 600 μg/mL
T1 sequence (P00690 16-511): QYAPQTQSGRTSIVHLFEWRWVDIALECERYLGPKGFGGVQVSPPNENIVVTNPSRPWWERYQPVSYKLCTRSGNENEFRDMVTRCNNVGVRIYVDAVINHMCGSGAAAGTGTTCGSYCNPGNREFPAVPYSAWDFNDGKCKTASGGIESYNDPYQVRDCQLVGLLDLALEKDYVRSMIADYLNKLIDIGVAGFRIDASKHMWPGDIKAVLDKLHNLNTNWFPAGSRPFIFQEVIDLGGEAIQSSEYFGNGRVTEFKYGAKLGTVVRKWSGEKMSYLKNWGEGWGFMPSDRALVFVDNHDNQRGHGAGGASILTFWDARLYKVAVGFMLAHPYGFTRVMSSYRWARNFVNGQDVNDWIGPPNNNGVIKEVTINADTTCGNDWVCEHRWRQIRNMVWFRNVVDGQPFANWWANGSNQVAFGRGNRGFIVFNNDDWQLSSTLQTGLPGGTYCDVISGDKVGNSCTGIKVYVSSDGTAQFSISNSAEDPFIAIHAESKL

[3] = biological target: Saccharomyces cerevisiae α-glucosidase (Saccharomyces cerevisiae, UniProt P53341); test: α-Glucosidase inhibitory activity and kinetic analysis; assay type: biochemical; conditions: for Ki: yeast α-glucosidase hydrolysis of PNPG; for Mode of Inhibition: PNPG substrate, determined by Lineweaver-Burk plots
Sequence of Saccharomyces cerevisiae α-glucosidase (P53341 whole entry): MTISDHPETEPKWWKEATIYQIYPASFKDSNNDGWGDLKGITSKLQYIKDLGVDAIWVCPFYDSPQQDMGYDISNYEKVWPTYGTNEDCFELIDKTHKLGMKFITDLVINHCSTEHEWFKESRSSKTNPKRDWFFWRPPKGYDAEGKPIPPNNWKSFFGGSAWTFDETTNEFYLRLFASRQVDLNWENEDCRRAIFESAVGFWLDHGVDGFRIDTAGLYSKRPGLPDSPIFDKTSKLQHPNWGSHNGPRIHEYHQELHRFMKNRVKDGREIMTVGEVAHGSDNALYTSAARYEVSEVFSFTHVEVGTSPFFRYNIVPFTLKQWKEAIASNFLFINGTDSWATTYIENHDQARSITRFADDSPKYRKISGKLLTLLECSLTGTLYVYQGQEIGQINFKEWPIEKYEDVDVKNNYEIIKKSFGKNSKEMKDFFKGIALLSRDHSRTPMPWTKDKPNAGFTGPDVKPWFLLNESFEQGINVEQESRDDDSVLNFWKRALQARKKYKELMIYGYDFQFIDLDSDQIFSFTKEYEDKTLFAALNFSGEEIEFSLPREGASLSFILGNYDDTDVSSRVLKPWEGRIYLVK

SMILES	re-export rate from Caco-2 cells (Caco-2 cells)	inhibition of maltose hydrolysis in differentiated Caco-2 cells [1]	inhibition of α-amylase [2]	IC50 ([3]; IC50, substrate PNPG) [µM]	Ki ([3]; Dixon plots, value in brackets) [µM]	Ki ([3]; determined by Dixon plots) [µM]	Mode of Inhibition [3]	Mode of Inhibition ([3]; listed as oxyresveratrol)
Oc1cc(O)cc(/C=C/c2ccc(O)cc2O)c1 [Oxyresveratrol, trans-3,5,2′,4′-tetrahydroxystilbene]	high	lesser potency compared to acarbose	no detectable inhibition	203	223	223	Non-competitive	non-competitively
C[C@H]1O[C@H](O[C@H]2[C@H](O)[C@@H](O)[C@@H](O[C@H]3[C@H](O)[C@@H](O)C(O)O[C@@H]3CO)O[C@@H]2CO)[C@H](O)[C@@H](O)[C@@H]1N[C@H]1C=C(CO)[C@@H](O)[C@H](O)[C@H]1O (stereo partly drawn) [Acarbose, acarbose, reference compound]		far more susceptible to acarbose						
